In the NIST ThermoML archive (doi:10.1021/je100145f):
Numbers after ± are expanded uncertainties.

Experiment: molar heat capacity at constant pressure; xn = mol fraction of the nth substance listed
Settings: 101 kPa, Liquid, Small sample (50 mg) DSC

N#Cc1ccccc1 [benzonitrile] + CCCCCCCC
molar heat capacity at constant pressure [J/K/mol]
Settings | 283.15 K | 288.15 K | 293.15 K | 298.15 K | 303.15 K | 308.15 K | 313.15 K | 318.15 K
x1 = 0.0219 | 246.32 ± 4.9 | 248.19 ± 5 | 250.11 ± 5 | 252.1 ± 5 | 254.14 ± 5.1 | 256.24 ± 5.1 | 258.38 ± 5.2 | 260.56 ± 5.2
x1 = 0.0576 | 243.69 ± 4.9 | 245.52 ± 4.9 | 247.38 ± 5 | 249.32 ± 5 | 251.3 ± 5 | 253.34 ± 5.1 | 255.43 ± 5.1 | 257.56 ± 5.2
x1 = 0.1021 | 240.66 ± 4.8 | 242.38 ± 4.8 | 244.17 ± 4.9 | 246 ± 4.9 | 247.92 ± 5 | 249.87 ± 5 | 251.88 ± 5 | 253.94 ± 5.1
x1 = 0.1999 | 234.51 ± 4.7 | 235.9 ± 4.7 | 237.41 ± 4.8 | 239.04 ± 4.8 | 240.74 ± 4.8 | 242.5 ± 4.8 | 244.34 ± 4.9 | 246.23 ± 4.9
x1 = 0.2998 | 229.04 ± 4.6 | 229.53 ± 4.6 | 230.52 ± 4.6 | 231.82 ± 4.6 | 233.28 ± 4.7 | 234.82 ± 4.7 | 236.47 ± 4.7 | 238.12 ± 4.8
x1 = 0.4002 | 224.38 ± 4.5 | 222.59 ± 4.5 | 223.06 ± 4.5 | 224.03 ± 4.5 | 225.26 ± 4.5 | 226.66 ± 4.5 | 228.12 ± 4.6 | 229.73 ± 4.6
x1 = 0.4637 | 219.83 ± 4.4 | 217.33 ± 4.3 | 217.69 ± 4.3 | 218.58 ± 4.4 | 219.78 ± 4.4 | 221.13 ± 4.4 | 222.51 ± 4.5 | –
x1 = 0.5001 | 215.93 ± 4.3 | 213.9 ± 4.3 | 214.32 ± 4.3 | 215.28 ± 4.3 | 216.5 ± 4.3 | 217.77 ± 4.4 | 219.26 ± 4.4 | 220.74 ± 4.4
x1 = 0.6001 | 203.15 ± 4.1 | 203.61 ± 4.1 | 204.57 ± 4.1 | 205.76 ± 4.1 | 207.09 ± 4.1 | 208.41 ± 4.2 | 209.85 ± 4.2 | 211.38 ± 4.2
x1 = 0.7003 | 192.17 ± 3.8 | 193.38 ± 3.9 | 194.65 ± 3.9 | 195.97 ± 3.9 | 197.33 ± 4 | 198.73 ± 4 | 200.16 ± 4 | 201.61 ± 4
x1 = 0.7999 | 182.68 ± 3.6 | 183.92 ± 3.7 | 185.2 ± 3.7 | 186.53 ± 3.7 | 187.88 ± 3.8 | 189.25 ± 3.8 | 190.63 ± 3.8 | 192.02 ± 3.8
x1 = 0.9 | 173.26 ± 3.5 | 174.47 ± 3.5 | 175.71 ± 3.5 | 176.98 ± 3.5 | 178.27 ± 3.6 | 179.58 ± 3.6 | 180.92 ± 3.6 | 182.23 ± 3.6
x1 = 0.95 | 168.41 ± 3.4 | 169.62 ± 3.4 | 170.83 ± 3.4 | 172.09 ± 3.4 | 173.36 ± 3.5 | 174.65 ± 3.5 | 175.96 ± 3.5 | 177.25 ± 3.5
x1 = 0.9801 | 165.44 ± 3.3 | 166.62 ± 3.3 | 167.83 ± 3.4 | 169.07 ± 3.4 | 170.34 ± 3.4 | 171.61 ± 3.4 | 172.89 ± 3.5 | 174.17 ± 3.5
x1 = 1 | 163.43 ± 3.3 | 164.61 ± 3.3 | 165.82 ± 3.3 | 167.06 ± 3.3 | 168.32 ± 3.4 | 169.59 ± 3.4 | 170.87 ± 3.4 | 172.15 ± 3.4

N#Cc1ccccc1 [benzonitrile] + CCCCCCCCC
molar heat capacity at constant pressure [J/K/mol]
Settings | 285.15 K | 288.15 K | 293.15 K | 298.15 K | 303.15 K | 308.15 K | 313.15 K
x1 = 0.0239 | 275.6 ± 5.5 | 276.8 ± 5.5 | 278.87 ± 5.6 | 280.98 ± 5.6 | 283.18 ± 5.7 | 285.48 ± 5.7 | 287.76 ± 5.8
x1 = 0.0499 | 272.83 ± 5.5 | 274.01 ± 5.5 | 276.02 ± 5.5 | 278.11 ± 5.6 | 280.26 ± 5.6 | 282.5 ± 5.7 | 284.75 ± 5.7
x1 = 0.0989 | 267.94 ± 5.4 | 269.06 ± 5.4 | 270.98 ± 5.4 | 272.97 ± 5.5 | 275.01 ± 5.5 | 277.16 ± 5.5 | 279.34 ± 5.6
x1 = 0.1984 | 258.53 ± 5.2 | 259.47 ± 5.2 | 261.13 ± 5.2 | 262.87 ± 5.3 | 264.72 ± 5.3 | 266.66 ± 5.3 | 268.65 ± 5.4
x1 = 0.2543 | 253.53 ± 5.1 | 254.27 ± 5.1 | 255.7 ± 5.1 | 257.26 ± 5.2 | 258.97 ± 5.2 | 260.77 ± 5.2 | 262.65 ± 5.2
x1 = 0.3 | 249.7 ± 5 | 250.12 ± 5 | 251.28 ± 5 | 252.66 ± 5 | 254.22 ± 5.1 | 255.89 ± 5.1 | 257.63 ± 5.2
x1 = 0.4004 | 242.4 ± 4.8 | 241.04 ± 4.8 | 241.24 ± 4.8 | 242.16 ± 4.8 | 243.44 ± 4.9 | 244.94 ± 4.9 | 246.59 ± 4.9
x1 = 0.4968 | 234.22 ± 4.7 | 230.79 ± 4.6 | 230.43 ± 4.6 | 231.16 ± 4.6 | 232.33 ± 4.7 | 233.66 ± 4.7 | 235.16 ± 4.7
x1 = 0.6 | 217.32 ± 4.3 | 216.76 ± 4.3 | 217.29 ± 4.3 | 218.27 ± 4.4 | 219.53 ± 4.4 | 220.89 ± 4.4 | 222.37 ± 4.5
x1 = 0.6996 | 202.24 ± 4 | 202.88 ± 4.1 | 204.1 ± 4.1 | 205.37 ± 4.1 | 206.74 ± 4.1 | 208.21 ± 4.2 | 209.67 ± 4.2
x1 = 0.8 | 189.2 ± 3.8 | 189.97 ± 3.8 | 191.28 ± 3.8 | 192.63 ± 3.9 | 194 ± 3.9 | 195.39 ± 3.9 | 196.84 ± 3.9
x1 = 0.9 | 176.74 ± 3.5 | 177.48 ± 3.5 | 178.75 ± 3.6 | 180.02 ± 3.6 | 181.35 ± 3.6 | 182.67 ± 3.6 | 184.01 ± 3.7
x1 = 0.9498 | 170.45 ± 3.4 | 171.18 ± 3.4 | 172.4 ± 3.5 | 173.65 ± 3.5 | 174.93 ± 3.5 | 176.22 ± 3.5 | 177.48 ± 3.5
x1 = 0.9805 | 166.46 ± 3.3 | 167.19 ± 3.3 | 168.41 ± 3.4 | 169.64 ± 3.4 | 170.89 ± 3.4 | 172.18 ± 3.4 | 173.44 ± 3.5
x1 = 1 | 163.9 ± 3.3 | 164.63 ± 3.3 | 165.82 ± 3.3 | 167.06 ± 3.3 | 168.32 ± 3.4 | 169.59 ± 3.4 | 170.87 ± 3.4
